According to patent US9062078B2, “Substituted 7-azabicyles and their use as orexin receptor modulators” (priority 2013, dated 2015):
Read-outs that look alike come from different tables or passages of the source.

Tests used:
[1] = biological target: human orexin 1 receptor (Homo sapiens (Human), UniProt O43613); experiment: Human orexin 1 receptor radioligand binding (competitive, [3H]-SB674042, CHO cell preparations)
[2] = biological target: human orexin 2 receptor (Homo sapiens (Human), UniProt O43614); experiment: Human orexin 2 receptor radioligand binding (competitive, [3H]-EMPA, HEK293 cell preparations)
[3] = human orexin 1 receptor, [3H]-SB674042 competition binding, read-out: hOX1 Ki (nm)
[4] = human orexin 2 receptor, [3H]-EMPA competition binding, read-out: hOX2 Ki (nm)

Chain of human orexin 2 receptor (O43614 whole entry): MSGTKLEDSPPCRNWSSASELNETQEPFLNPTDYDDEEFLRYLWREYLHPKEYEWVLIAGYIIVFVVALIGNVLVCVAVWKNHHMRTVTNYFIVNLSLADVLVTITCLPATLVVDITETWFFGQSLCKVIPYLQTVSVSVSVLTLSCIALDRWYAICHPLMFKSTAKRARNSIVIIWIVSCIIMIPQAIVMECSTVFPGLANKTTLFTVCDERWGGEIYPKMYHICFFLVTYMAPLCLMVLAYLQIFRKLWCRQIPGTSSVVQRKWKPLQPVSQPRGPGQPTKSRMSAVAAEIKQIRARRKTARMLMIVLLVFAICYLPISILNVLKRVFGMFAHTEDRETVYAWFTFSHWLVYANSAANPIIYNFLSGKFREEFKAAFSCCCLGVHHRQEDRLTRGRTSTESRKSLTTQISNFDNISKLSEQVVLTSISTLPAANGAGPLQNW
Chain of human orexin 1 receptor (O43613 whole entry): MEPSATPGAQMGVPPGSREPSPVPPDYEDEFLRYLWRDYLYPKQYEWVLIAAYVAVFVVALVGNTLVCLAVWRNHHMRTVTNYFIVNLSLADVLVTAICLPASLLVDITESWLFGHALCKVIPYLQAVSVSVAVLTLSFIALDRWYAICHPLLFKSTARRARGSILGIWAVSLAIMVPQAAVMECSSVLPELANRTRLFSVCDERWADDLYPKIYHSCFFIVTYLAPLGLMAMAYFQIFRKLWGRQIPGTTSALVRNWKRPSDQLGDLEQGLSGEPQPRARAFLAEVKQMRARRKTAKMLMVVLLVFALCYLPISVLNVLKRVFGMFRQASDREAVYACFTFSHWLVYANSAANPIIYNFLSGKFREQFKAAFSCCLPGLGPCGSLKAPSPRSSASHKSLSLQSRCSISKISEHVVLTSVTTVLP

Compound	Ki [1, 3] [nM]	Ki [2, 4] [nM]	Ki ([1]; hOX1 Ki (nm)) [nM]	Ki ([2]; hOX2 Ki (nm)) [nM]
Cc1ccc(OCC2CC3CCC2N3C(=O)c2cccc(F)c2-n2nccn2)nc1 (racemic) [Example 138, (±)-(3-fluoro-2-(2H-1,2,3-triazol-2-yl)phenyl)(2-(((5-methylpyridin-2-yl)oxy)methyl)-7-azabicyclo[2.2.1]heptan-7-yl)methanone]	606	250	–	–
O=C(c1cc(F)ccc1-n1nccn1)N1C2CCC1C(COc1ccc(F)cn1)C2 (racemic) [Example 30, (±)-(5-fluoro-2-(2H-1,2,3-triazol-2-yl)phenyl)(2-(((5-fluoropyridin-2-yl)oxy)methyl)-7-azabicyclo[2.2.1]heptan-7-yl)methanone]	47	149	–	–
Cc1cc(C)nc(OCC2CC3CCC2N3C(=O)c2c(C)noc2-c2ccccc2)n1 (racemic) [Example 40, (±)-2-(((4,6-dimethylpyrimidin-2-yl)oxy)methyl)-7-azabicyclo[2.2.1]heptan-7-yl)(3-methyl-5-phenylisoxazol-4-yl)methanone]	5000	1200	–	–
O=C(c1cc(F)ccc1-n1nccn1)N1C2CCC1C(COc1cnc3ccccc3n1)C2 (racemic) [Example 166, (±)-(5-fluoro-2-(2H-1,2,3-triazol-2-yl)phenyl)(2-((quinoxalin-2-yloxy)methyl)-7-azabicyclo[2.2.1]heptan-7-yl)methanone]	106	1140	–	–
Cc1ccc(-n2nccn2)c(C(=O)N2C3CCC2C(COc2cc(C)nc(C(F)(F)F)n2)C3)c1 (racemic) [Example 180, (±)-(5-methyl-2-(2H-1,2,3-triazol-2-yl)phenyl)(2-(((6-methyl-2-(trifluoromethyl)pyrimidin-4-yl)oxy)methyl)-7-azabicyclo[2.2.1]heptan-7-yl)methanone]	–	32	33	–
O=C(c1cc(F)ccc1-n1nccn1)N1C2CCC1C(CNc1ccccn1)C2 (racemic) [Example 169, (±)-(5-fluoro-2-(2H-1,2,3-triazol-2-yl)phenyl)(2-((pyridin-2-ylamino)methyl)-7-azabicyclo[2.2.1]heptan-7-yl)methanone]	9000	2530	–	–
O=C(c1cccc2cccnc12)N1C2CCC1C(COc1ccc(F)cn1)C2 (racemic) [Example 23, (±)-2-(((5-fluoropyridin-2-yl)oxy)methyl)-7-azabicyclo[2.2.1]heptan-7-yl)(quinolin-8-yl)methanone]	322	1500	–	–
Cc1ccc(-n2nccn2)c(C(=O)N2C3CCC2C(COc2cccc(C(F)(F)F)n2)C3)c1 (racemic) [Example 16, (±)-(5-methyl-2-(2H-1,2,3-triazol-2-yl)phenyl)(2-(((6-(trifluoromethyl)pyridin-2-yl)oxy)methyl)-7-azabicyclo[2.2.1]heptan-7-yl)methanone]	20	42	–	–
Cc1ccc(C(=O)N2C3CCC2C(COc2nccc(C(F)(F)F)n2)C3)c(-n2nccn2)n1 (racemic) [Example 131, (±)-(6-methyl-2-(2H-1,2,3-triazol-2-yl)pyridin-3-yl)(2-(((4-(trifluoromethyl)pyrimidin-2-yl)oxy)methyl)-7-azabicyclo[2.2.1]heptan-7-yl)methanone]	–	–	≥ 10000	≥ 10000
Cc1cc(C)nc(OCC2CC3CCC2N3C(=O)c2ccccc2-c2cccs2)n1 (racemic) [Example 46, (±)-(2-(((4,6-dimethylpyrimidin-2-yl)oxy)methyl)-7-azabicyclo[2.2.1]heptan-7-yl)(2-(thiophen-2-yl)phenyl)methanone]	82	10	–	–
Cc1noc(-c2ccccc2C(=O)N2C3CCC2C(COc2nccc(C(F)(F)F)n2)C3)n1 (racemic) [Example 133, (±)-(2-(3-methyl-1,2,4-oxadiazol-5-yl)phenyl)(2-(((4-(trifluoromethyl)pyrimidin-2-yl)oxy)methyl)-7-azabicyclo[2.2.1]heptan-7-yl)methanone]	1400	950	–	–
Cc1cc(C)nc(OCC2CC3CCC2N3C(=O)c2ccc(C)nc2-n2nccn2)n1 (racemic) [Example 151, (±)-(2-(((4,6-dimethylpyrimidin-2-yl)oxy)methyl)-7-azabicyclo[2.2.1]heptan-7-yl)(6-methyl-2-(2H-1,2,3-triazol-2-yl)pyridin-3-yl)methanone]	≥ 10000	≥ 10000	–	–
Cc1ccc(-n2nccn2)c(C(=O)N2C3CCC2C(COc2ncccc2C(F)(F)F)C3)c1 (racemic) [Example 15, (±)-(5-methyl-2-(2H-1,2,3-triazol-2-yl)phenyl)(2-(((3-(trifluoromethyl)pyridin-2-yl)oxy)methyl)-7-azabicyclo[2.2.1]heptan-7-yl)methanone]	–	120	56	–
O=C(c1ccccc1-n1cccn1)N1C2CCC1C(COc1ccc(F)cn1)C2 (racemic) [Example 26, (±)-2-(1H-pyrazol-1-yl)phenyl)(2-(((5-fluoropyridin-2-yl)oxy)methyl)-7-azabicyclo[2.2.1]heptan-7-yl)methanone]	117	394	–	–
Cc1ccc(-c2ncccn2)c(C(=O)N2C3CCC2C(COc2cnc4ccccc4n2)C3)c1 (racemic) [Example 38, (±)-(5-methyl-2-(pyrimidin-2-yl)phenyl)(2-((quinoxalin-2-yloxy)methyl)-7-azabicyclo[2.2.1]heptan-7-yl)methanone]	–	383	120	–
Cc1ccc(C(=O)N2C3CCC2C(COc2cccc(C(F)(F)F)n2)C3)c(-n2ccnn2)n1 (racemic) [Example 144, (±)-(6-methyl-2-(1H-1,2,3-triazol-1-yl)pyridin-3-yl)(2-(((6-(trifluoromethyl)pyridin-2-yl)oxy)methyl)-7-azabicyclo[2.2.1]heptan-7-yl)methanone]	3600	–	–	3200
Cc1ccc(C(=O)N2C3CCC2C(COc2cccc(C(F)(F)F)n2)C3)c(-n2nccn2)n1 (racemic) [Example 143, (±)-(6-methyl-2-(2H-1,2,3-triazol-2-yl)pyridin-3-yl)(2-(((6-(trifluoromethyl)pyridin-2-yl)oxy)methyl)-7-azabicyclo[2.2.1]heptan-7-yl)methanone]	3900	–	–	4600
Cc1cc(C)nc(NC2CC3CCC2N3C(=O)c2c(F)cccc2-n2nccn2)n1 (racemic) [Example 198, (±)-(2-((4,6-dimethylpyrimidin-2-yl)amino)-7-azabicyclo[2.2.1]heptan-7-yl)(2-fluoro-6-(2H-1,2,3-triazol-2-yl)phenyl)methanone]	–	704	1410	–
CCOc1ccc2ccccc2c1C(=O)N1C2CCC1C(COc1nc(C)cc(C)n1)C2 (racemic) [Example 41, (±)-(2-(((4,6-dimethylpyrimidin-2-yl)oxy)methyl)-7-azabicyclo[2.2.1]heptan-7-yl)(2-ethoxynaphthalen-1-yl)methanone]	35	22	–	–
Cc1cc(C)nc(OCC2CC3CCC2N3C(=O)c2ccccc2-c2nc(C)no2)n1 (racemic) [Example 153, (±)-(2-(((4,6-dimethylpyrimidin-2-yl)oxy)methyl)-7-azabicyclo[2.2.1]heptan-7-yl)(2-(3-methyl-1,2,4-oxadiazol-5-yl)phenyl)methanone]	1100	440	–	–
Cc1ccc(-n2nccn2)c(C(=O)N2C3CCC2C(COc2nc4ccccc4nc2C(F)(F)F)C3)c1 (racemic) [Example 21, (±)-(5-methyl-2-(2H-1,2,3-triazol-2-yl)phenyl)(2-(((3-(trifluoromethyl)quinoxalin-2-yl)oxy)methyl)-7-azabicyclo[2.2.1]heptan-7-yl)methanone]	–	487	300	–
Cc1ccc(C(=O)N2C3CCC2C(COc2ccccn2)C3)c(-n2ccnn2)n1 (racemic) [Example 130, (±)-(6-methyl-2-(1H-1,2,3-triazol-1-yl)pyridin-3-yl)(2-((pyridin-2-yloxy)methyl)-7-azabicyclo[2.2.1]heptan-7-yl)methanone]	3700	7200	–	–
O=C(c1cccc(F)c1-n1nccn1)N1C2CCC1C(COc1cnc3ccccc3n1)C2 (racemic) [Example 150, (±)-(3-fluoro-2-(2H-1,2,3-triazol-2-yl)phenyl)(2-((quinoxalin-2-yloxy)methyl)-7-azabicyclo[2.2.1]heptan-7-yl)methanone]	180	990	–	–
Cc1ccc(-n2nccn2)c(C(=O)N2C3CCC2C(COc2nccc(C(F)(F)F)n2)C3)c1 (racemic) [Example 13, (±)-(5-methyl-2-(2H-1,2,3-triazol-2-yl)phenyl)(2-(((4-(trifluoromethyl)pyrimidin-2-yl)oxy)methyl)-7-azabicyclo[2.2.1]heptan-7-yl)methanone]	–	109	118	–
Cc1ccc(OCC2CC3CCC2N3C(=O)c2ccc(C)nc2-n2ccnn2)nc1 (racemic) [Example 136, (±)-(6-methyl-2-(1H-1,2,3-triazol-1-yl)pyridin-3-yl)(2-(((5-methylpyridin-2-yl)oxy)methyl)-7-azabicyclo[2.2.1]heptan-7-yl)methanone]	–	1200	6800	–
Cc1cc(C)nc(OCC2CC3CCC2N3C(=O)c2cc(F)ccc2-c2ncccn2)n1 (racemic) [Example 44, (±)-(2-(((4,6-dimethylpyrimidin-2-yl)oxy)methyl)-7-azabicyclo[2.2.1]heptan-7-yl)(5-fluoro-2-(pyrimidin-2-yl)phenyl)methanone]	–	104	400	–
CCOc1ccccc1C(=O)N1C2CCC1C(COc1ccc(F)cn1)C2 (racemic) [Example 165, (±)-(2-ethoxyphenyl)(2-(((5-fluoropyridin-2-yl)oxy)methyl)-7-azabicyclo[2.2.1]heptan-7-yl)methanone]	–	550	409	–
Cc1ccc(-n2nccn2)c(C(=O)N2C3CCC2C(COc2nc(C)cnc2C)C3)c1 (racemic) [Example 20, (±)-(2-(((3,6-dimethylpyrazin-2-yl)oxy)methyl)-7-azabicyclo[2.2.1]heptan-7-yl)(5-methyl-2-(2H-1,2,3-triazol-2-yl)phenyl)methanone]	270	364	–	–
